Results from patent US20240417812A1, “METHODS FOR TREATING SOLID CANCER PATIENTS WITH CLONAL HEMATOPOIESIS OF INDETERMINATE POTENTIAL” (Olatec Therapeutics, Inc., priority 2022, published 2024).
Where two headings read alike, the source gives them in different places.

How the values were obtained:
[1] = tested on: tumor-infiltrating granulocytes; experiment: Flow cytometry of tumor-infiltrating granulocytes of BM chimera mice; type: in vivo, mouse; details: Tet2+/− chimeras
Experimental: After 6 weeks of engraftment, mice were given breast tumors via orthotopic transplantation of breast cancer cells. Tumor progression was assessed by measuring the volume of the tumor in the mouse using calipers. After 15 days, mice were sacrificed, and their bone marrow, peripheral blood, and tumors were harvested for flow cytometry analysis to determine the levels of immune cell populations and relative contribution from WT or Tet2+/+ or Tet2+/− bone marrow cells.
Bone marrow isolation and cell staining was performed on ice in staining medium (SM; Hanks Balanced Salt Solution [HBSS 1×, Corning 1-022-CM] supplemented with heat inactivated fetal bovine serum [FBS, VWR 97068-05] to a final concentration of 2%). Femurs and tibiae were flushed with 3 mL of SM and followed by RBC lysis with ACK lysis buffer. Peripheral blood was isolated via the heart and placed into RBC lysis buffer. After RBC lysis cells were incubated on ice for 30 minutes with antibody cocktails prior to being washed and resuspended in SM containing propidium iodide to stain dead cells. Flow cytometry was performed on the BD FACSCelesta.

E0771 cells [2] = experiment: E0771 orthotopic breast tumor model in Tet2+/+ or Tet2+/− bone marrow chimeric mice; type: in vivo, mouse
Source text: (§1) 2×10^5 E0771 cells were mixed with matrigel and implanted orthotopically into the mammary fat pad (day 0). Mice treated with dapansutrile were fed ad libitum with food pellets containing 7.5 g dapansutrile/kg food, which started on day 3 after E0771 cell implantation and continued until being sacrificed. Mice were sacrificed on day 18 for the germline mouse model and day 15 for the chimeric mouse model. Mice typically consume about 4 g of food per day, resulting in an approximate daily dose of 0 mg/kg/day for control groups and 1,000 mg/kg/day for the treatment groups. […] Wild-type and Tet2+/− mice were fed with control food pellets without dapansutrile. Mice were sacrificed following 15-18 days after E0771 cell implantation. Tumor volumes were assessed using ½(L×W×H) measured via digital caliper.
To create a mouse model that more closely resembles human CHIP, we generated mice with chimeric bone marrow (BM) that was 75% wild type (WT), and 25% Tet2 […] (Tet2+/+) or heterozygous (Tet2+/−). To identify the contribution of WT or Tet2+/− cells to hematopoiesis, we used the pan hematopoietic marker CD45. […]
(§2) After 6 weeks of engraftment, mice were given breast tumors via orthotopic transplantation of breast cancer cells. Tumor progression was assessed by measuring the volume of the tumor in the mouse using calipers. […]

[3] = tested on: keratinocyte chemoattractant (KC); experiment: Plasma KC of BM chimera mice; type: in vivo, mouse; details: Tet2+/− chimeras, dapansutrile diet vs standard diet, p<0.05
Source text: (§3) FIGS. 5A-5B show plasma cytokine production of chemokine C-C motif ligand 2 (CCL2, 5A) and keratinocyte chemoattractant (KC, 5B) of BM chimera mice from FIG. 2

[4] = tested on: chemokine C-C motif ligand 2 (CCL2); experiment: Plasma CCL2 of BM chimera mice; type: in vivo, mouse; details: Tet2+/− chimeras, dapansutrile diet vs standard diet, p<0.05
Source text: as §3

IL-1β = IL-1β production from bone marrow adherent cells isolated from tumor-bearing mice (ELISA); type: cell-based, mouse; details: adherent bone marrow cells from tumor-bearing Tet2+/− mice, LPS stimulated, dapansutrile treated vs untreated; p<0.05
Experimental: Bone marrow cells from tumor-bearing mice was collected and filtered through […] cell strainer. 3×10^6 cells were plated in 24-well plates and incubated overnight. The next day to non-adherent fraction was removed and the adherent fraction was treated with 10 μM dapansutrile and were cultured in RPMI supplemented with 10% FBS, 100 units/ml penicillin and 0.1 mg/ml streptomycin for 24 hours. Cytokines were measured in cell culture supernatants using DuoSet ELISA (R&D Systems).
Bone marrow cells were collected from the four long bones as described above and filtered through a […] cell strainer prior to counting. 1×10^6 cells were plated in flat bottom tissue culture plates and incubated overnight. The next day the non-adherent fraction was removed and the adherent fraction was used for downstream experiments.
For western blot and cytokine analysis, adherent bone marrow cells were stimulated±LPS (100 ng/mL) and cultured for an additional 24 hours. Cells were cultured in RPMI supplemented with 10% FBS, 100 units/ml penicillin and 0.1 mg/ml streptomycin. […] Cytokines were measured in cell culture supernatants using DuoSet ELISA (R&D Systems).
Next, we assessed the inflammatory potential of myeloid cells from tumor-bearing mice. […]

E0771 cells [5] = experiment: E0771 orthotopic breast tumor model in germline Tet2+/+ or Tet2+/− mice; type: in vivo, mouse
Experimental: 6-8 week old B6(Cg)-Tet2tm1.2Rao/J (JAX) female mice heterozygous for Tet2 allele or wild-type for Tet2 allele were purchased for Jackson Laboratories.
The murine metastatic mammary cancer cell line E0771 was purchased from ATCC. E0771 cells were cultured in RPMI (Corning) supplemented with 10% FBS, 1% HEPES, 100 units/ml penicillin and 0.1 mg/ml streptomycin. Cells were maintained in a humidified 5% CO2 atmosphere at 37° C.
as §1
Myeloid cells are the predominant source of tumor-promoting IL-1β in the breast cancer TME, and TET2 mutations have been reported in tumor-infiltrating leukocytes. […] We orthotopically implanted the murine metastatic luminal B breast cancer cell line, E0771, into Tet2+/+ (WT) or Tet2+/− germline mice. Three days after implantation, mice were placed on a control chow diet or a nutritionally identical diet enriched with OLT1177® (dapansutrile) for 15 days. Mice were sacrificed following […] after E0771 cell implantation.

[6] = Blood level in mice fed dapansutrile food pellets; type: in vivo, mouse; details: 7.5 g/kg of dapansutrile in food (approx. 1,000 mg/kg/day)
Source text: as §1

Tet2+/− clones = experiment: Expansion of Tet2+/− clones in tumor-bearing BM chimera mice; type: in vivo, mouse; details: dapansutrile diet
Source text: To create a mouse model that more closely resembles human CHIP, we generated mice with chimeric bone marrow (BM) that was 75% wild type (WT), and 25% Tet2 […] (Tet2+/+) or heterozygous (Tet2+/−). To identify the contribution of WT or Tet2+/− cells to hematopoiesis, we used the pan hematopoietic marker CD45. We used two congenic mouse strains with variants in CD45 C57BL/6 and Boy/J (CD45.2 and CD45.1, respectively), which can be identified with fluorescently labeled antibodies using flow cytometry analysis. To generate the chimeric BM, we lethally irradiated Boy/J recipient mice (CD45.1) with an 11gy split-dose administered three hours apart. Irradiated recipient mice were then transplanted with 2 million unfractionated BM cells that were a mix of 75% CD45.1 WT and 25% CD45.2
Tet2+/+ or Tet2+/−. Cells were given via a retro-orbital (RO) sinus injection. To monitor the engraftment of donor-derived cells, mice were bled every four weeks via the submandibular vein. […]
as §2
In this example, we first assessed the extent to which Tet2-deficient myeloid cells infiltrated into peripheral blood (FIG. 3A) and in the tumor (FIG. 3B).

[7] = humans treated orally at 1000 mg/day; cited from earlier work
[8] = orally administered to healthy subjects; cited from earlier work
NLRP3 inflammasome = NLRP3 inflammasome (Homo sapiens, UniProt Q96P20); details: cited from earlier work
Chain of NLRP3 inflammasome (Q96P20 whole entry): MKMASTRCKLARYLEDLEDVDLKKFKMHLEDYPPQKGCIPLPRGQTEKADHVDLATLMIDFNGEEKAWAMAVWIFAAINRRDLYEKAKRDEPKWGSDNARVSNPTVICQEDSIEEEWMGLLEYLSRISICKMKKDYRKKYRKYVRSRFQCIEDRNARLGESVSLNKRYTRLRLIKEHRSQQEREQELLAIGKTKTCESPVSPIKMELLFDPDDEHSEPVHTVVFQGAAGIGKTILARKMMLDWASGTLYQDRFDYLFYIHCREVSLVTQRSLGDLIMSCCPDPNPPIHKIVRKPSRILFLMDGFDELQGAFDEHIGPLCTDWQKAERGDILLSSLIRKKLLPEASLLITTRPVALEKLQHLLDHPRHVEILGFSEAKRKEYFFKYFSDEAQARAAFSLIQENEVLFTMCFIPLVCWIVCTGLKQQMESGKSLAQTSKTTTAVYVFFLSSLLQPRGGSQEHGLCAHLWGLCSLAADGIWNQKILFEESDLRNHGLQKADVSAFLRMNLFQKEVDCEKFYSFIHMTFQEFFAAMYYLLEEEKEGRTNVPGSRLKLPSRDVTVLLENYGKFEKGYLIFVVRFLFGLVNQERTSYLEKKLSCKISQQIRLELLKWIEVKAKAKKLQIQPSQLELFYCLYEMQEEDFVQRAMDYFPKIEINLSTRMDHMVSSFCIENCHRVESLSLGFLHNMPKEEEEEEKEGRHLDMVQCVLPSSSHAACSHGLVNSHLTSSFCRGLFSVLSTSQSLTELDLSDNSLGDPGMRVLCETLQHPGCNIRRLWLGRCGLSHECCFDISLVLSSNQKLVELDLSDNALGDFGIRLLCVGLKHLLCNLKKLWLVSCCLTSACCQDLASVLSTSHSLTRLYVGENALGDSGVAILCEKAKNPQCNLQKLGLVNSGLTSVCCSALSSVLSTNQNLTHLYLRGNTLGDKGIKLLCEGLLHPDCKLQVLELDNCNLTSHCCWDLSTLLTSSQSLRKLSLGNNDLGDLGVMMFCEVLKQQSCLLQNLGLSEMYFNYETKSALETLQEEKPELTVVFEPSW

CS(=O)(=O)CCC#N [dapansutrile, 3-methanesulfonyl-propionitrile]
tumor-infiltrating granulocytes (frequency) ([1]; dapansutrile diet vs standard diet, p<0.05): significantly decreased
MHC-II expression (gMFI) on tumor-infiltrating granulocytes ([1]; dapansutrile diet, p<0.001): rescued
tumor growth (E0771 cells [2]; Tet2+/+ chimeric mice, dapansutrile diet, to baseline level equivalent to dapansutrile-treated Tet2+/− chimeric mice): suppressed tumor growth
tumor growth (E0771 cells [2]; Tet2+/− chimeric mice, dapansutrile diet from day 3 vs control chow, p<0.001): suppressed
circulating KC [3]: significantly decreased
circulating CCL2 [4]: significantly decreased
IL-1β secretion (IL-1β): significantly less
tumor growth (E0771 cells [5]; Tet2+/+ (WT) germline mice on dapansutrile vs standard diet, p<0.05): significantly decreased
tumor growth, difference between genotypes (E0771 cells [5]; Tet2+/+ (WT) vs Tet2+/− mice, both on dapansutrile diet): No changes in tumor growth
tumor growth reduction (E0771 cells [5]; Tet2+/− germline mice, dapansutrile diet (7.5 g/kg food, from day 3) vs Tet2+/− on standard diet, p<0.01): 68%
blood level [6]: ~40000 ng/mL
expansion of Tet2+/− clones (Tet2+/− clones): able to reduce
blood level [7]: 40000 ng/mL
safety [8]: safe
NLRP3 inflammasome inhibition (NLRP3 inflammasome): selectively inhibit
